# Activity calls are given as the source filed them. The rule behind the calls is not given here.
# Key:
# [1] = Half life in pH 7.4 isotonic sodium phosphate buffer at 37 degC by HPLC-DAD-ESI-MS method; type: physicochemical
# [2] = target: T1, Ribonucleotide reductase (Homo sapiens) (UniProt P23921+Q7LG56); assay: Inhibition of ribonucleotide reductase in human HL60 cells assessed as intracellular dNTP pools level at 1.2 mM after 1 hr by HPLC method; type: cell-based; conditions: HL-60
# HL-60 [3] = assay: Induction of cell cycle arrest in human HL60 cells assessed as accumulation at S phase at 1 mM after 24 hrs by propidium iodide staining based flow cytometry (reference value: 54%); type: functional
# HT-29 = assay: Growth inhibition of human HT-29 cells after 48 hrs by MTT assay; type: functional, cell-based; conditions: Homo sapiens, HT-29, 48 h; read-out: IC50
# [4] = Growth inhibition of human HL60 cells after 48 hrs by MTT assay; type: functional, cell-based, HL-60; conditions: Homo sapiens, HL-60, 48 h; read-out: IC50
# HL-60 [5] = assay: Induction of cell cycle arrest in human HL60 cells assessed as accumulation at G2M phase at 1 mM after 24 hrs by propidium iodide staining based flow cytometry (reference value: 12%); type: functional
# HL-60 [6] = assay: Induction of cell cycle arrest in human HL60 cells assessed as accumulation at G1 phase at 1 mM after 24 hrs by propidium iodide staining based flow cytometry (reference value: 32%); type: functional
# MCF7 = assay: Growth inhibition of human MCF7 cells after 48 hrs by MTT assay; type: functional, cell-based; conditions: Homo sapiens, MCF7, 48 h; read-out: IC50
# [7] = Half life in RPMI-1640 medium containing 10% fetal calf serum assessed as compound disappearance by HPLC-DAD-ESI-MS method; type: ADME, Bos taurus; conditions: cattle
# HuT78 = assay: Growth inhibition of human HUT78 cells after 48 hrs by MTT assay; type: functional, cell-based; conditions: Homo sapiens, HuT78, 48 h; read-out: IC50
# K562 = assay: Growth inhibition of human K562 cells after 48 hrs by MTT assay; type: functional, cell-based; conditions: Homo sapiens, K562, 48 h; read-out: IC50
# [8] = Growth inhibition of human Caco2 cells after 48 hrs by MTT assay; type: functional, cell-based, Caco-2; conditions: Homo sapiens, Caco-2, 48 h; read-out: IC50
# HeLa = assay: Growth inhibition of human HeLa cells after 48 hrs by MTT assay; type: functional, cell-based; conditions: Homo sapiens, HeLa, 48 h; read-out: IC50
# [9] = target: T1, Ribonucleotide reductase (Homo sapiens); assay: Inhibition of human recombinant ribonucleotide reductase at 1.2 mM; type: protein-complex assay
# HL-60 [10] = assay: Induction of apoptosis in human HL60 cells after 24 to 48 hrs by acridine orange and ethidium bromide staining based fluorescence microscopy; type: functional, cell-based; conditions: hl-60
smiles,measurement,setting,value
CCCC(CCC)C(=O)O[C@H]1[C@H](n2cnc3c(N)ncnc32)O[C@H](CO)[C@@]1(C)O,half-life,[1],> 72 h
same,inhibition,[2],Active
same,Activity,HL-60 [3],40%
same,IC50,HT-29,> 1000 µM
same,IC50,[4],650 µM
same,Activity,HL-60 [5],9%
same,Activity,HL-60 [6],51%
same,IC50,MCF7,> 1000 µM
same,half-life,[7],> 72 h
same,IC50,HuT78,912 µM
same,IC50,K562,500 µM
same,IC50,[8],> 1000 µM
same,IC50,HeLa,> 1000 µM
same,inhibition,[9],Active
same,AC50,HL-60 [10],Not Active

# Source: ChEMBL document CHEMBL3351354, “From the covalent linkage of drugs to novel inhibitors of ribonucleotide reductase: synthesis and biological evaluation of valproic esters of 3'-C-methyladenosine” (Bioorg Med Chem Lett, 2014)
